Measured values from patent US20080241919A1, “Defined media for pluripotent stem cell culture” (The Burnham Institute of Medical Research, priority 2003, published 2008).

Tests used:
[1] = test system: human embryonic stem cells (hESCs); assay: Medium component requirement assay, hESCs on laminin/collagen-coated plates for seven days; assay type: cell-based
Protocol: (a) Media containing bFGF, insulin, and ascorbic acid sustain the healthy undifferentiated growth of hESCs on laminin/collagen-coated plates. Insulin (20 μg/ml), transferrin (8 μg/ml), albumin (for example, the commercial product known as AlbuMAXI) (10 mg/ml), and ascorbic acid (50 μg/ml) were added to a base medium that consisted of 100% DMEM/F-12 with 20 ng/ml bFGF, 2 mM L-alanyl-L-glutamine, 1×MEM essential amino acids solution, 1×MEM non-essential amino acids solution, and 100 μM β-mercaptoethanol. The degree of differentiation was judged by morphology of the colonies and Oct-4 expression. […] (red). […] However, if ascorbic acid was omitted from the media [D, H, L] […] White arrows in all panels delineate the edge of an hESC colony. The area delineated by the white square in [A], [E], and [I] indicates the approximate area that is visualized at higher magnification in [B, C], [F, G], and [J, K], respectively. [C], [G], and [K] is the image in [B], [F], and [J], respectively, merged with DAPI staining of their nuclei (blue).
(b) When either bFGF or insulin was omitted from the media, hESC colonies appeared to differentiate completely under the feeder- and serum-free conditions. […] The distinct growth effects of insulin and bFGF were further accentuated in media lacking ascorbic acid [C, F] (“NO Ascorbic Acid”). In the absence of ascorbic acid and in media that contained only insulin as the growth factor [C] (phase) (“NO Ascorbic Acid”), slower growth of the differentiated hESCs was observed (compare [A, B] to [C]). In ascorbic-acid-lacking media that contained bFGF as the only growth factor [F] […] White arrows in all panels delineate the edge of hESC colonies.
Having determined that substantial numbers of undifferentiated hESCs could be maintained over long periods in feeder-free environments using the bFGF-supplemented media described above, the necessity of other components in the medium to maintain hESCs in an undifferentiated state was next examined. “Knockout Serum Replacement” contains insulin, transferrin, ascorbic acid, amino acids, and AlbuMAX (a chromatographically-purified lipid-rich bovine serum albumin [BSA] with low IgG content, but nevertheless a xeno-derived product). Accordingly, whether insulin, transferrin, BSA, and ascorbic acid were essential components was assessed, in combination with bFGF, for maintaining hESCs in an undifferentiated state. The serum replacement components insulin (20 μg/ml), transferrin (8 μg/ml), albumin (AlbuMAX) (10 mg/ml), and ascorbic acid (50 μg/ml) were added to a base medium that consisted of DMEM/F-12 or KO-DMEM with bFGF (20 ng/ml), L-alanyl-L-glutamine or L-glutamine (2 mM), MEM essential amino acids solution (1×), MEM nonessential amino acids solution (1×), and β-mercaptoethanol (100 μM). To assay for the differentiation-forestalling activity of each of these components, undifferentiated hESCs were seeded on laminin/collagen-coated plates and cultivated for seven days in media containing one or more of the individual components. The degree of differentiation of the colonies was judged by defining morphology and Oct-4 expression.
When either bFGF or insulin was omitted from the media, more than 90% of the colonies appeared to differentiate completely within the first passage, as indicated by their differentiated morphology (FIG. 2b, A,B,D,E), their complete loss of Oct-4 expression, and their expression of the cell surface marker SSEA-1 (FIG. 2c, B,C). […] The different effects of insulin and bFGF were accentuated further in media lacking ascorbic acid. In the absence of ascorbic acid and in media containing only insulin, the growth of differentiated hESCs was simply slower (FIG. 2b, C). […] Although albumin and transferrin are not crucial components for sustaining the undifferentiated growth of hESCs, they might abet survival or maintenance of a normal colony shape.

[2] = test system: human embryonic stem cells (hESCs); assay: Other growth factors in place of bFGF for undifferentiated growth of hESCs; assay type: cell-based; conditions: feeder- and serum-free conditions
Protocol: All the growth factors were dissolved in a PBS buffer that contained 0.5% BSA, 1 mM DTT (Dithiothreitol) and 10% glyceral as a 10 μg/ml (500×) stock solution and stored in aliquots at −80° C. These factors were added individually to the hESC cultures at a concentration of 20 ng/ml, in the absence of bFGF or in the presence of a low concentration of bFGF (4 ng/ml). Seven days after seeding undifferentiated hESCs on laminin/collagen-coated plates, the cultures were examined.

[3] = test system: acetylated histone H3 and H4, Myc, Tip60 HAT, p300 HAT; assay: Chromatin state immunofluorescence (acetylated H3/H4, Myc, Tip60, p300) in hESCs; assay type: cell-based, human; conditions: named factor omitted from the media
Excerpt: (c) Presence of both bFGF and insulin is essential for maintenance of an acetylated transcriptionally active chromatin state in undifferentiated hESCs. When either bFGF or insulin is omitted from the media, the differentiated hESC colonies express the differentiation-associated cell surface marker SSEA-1 [B, C] […] (green), Myc [E, F] (red), and histone acetyltransferase (HAT) Tip60 [I, K] (green) and p300 [J, K] […] All cells are indicated by DAPI staining of their nuclei (blue).
To discover the minimal essential conditions needed to support the long-term growth of undifferentiated hESCs, morphological analysis was used to assess the developmental stage of hESCs at different times. For these analyses hESCs were grown in a 6- or 12-well plate to maturation (day 6 or 7 after seeding) before being fixed and visualized under a phase contrast microscope. Cellular immunofluorescence was also employed to assess the state of differentiation of hESCs. […] The state of differentiation of hESC was further assessed by generating (via lentiviral-mediated transduction) hESCs carrying a reporter gene (enhanced green fluorescence protein (EGFP)) under control of the Oct-4 promoter. Using these transfected hESCs (carrying Oct-4 driven EGFP), the undifferentiated state of hESCs can be visualized by green fluorescence (indicating Oct-4 expression). […]

[4] = test system: human embryonic stem cells (hESCs); assay: Growth of hESCs on purified matrix protein-coated plates; assay type: cell-based; conditions: hESC media containing 20 ng/ml bFGF
Excerpt: (e) Characterization of hESCs maintained on matrix protein-coated plates in the defined hESC media - Determining the Minimal Essential Matrix. hESCs maintained on a laminin-coated plate have a classic undifferentiated morphology [A] (phase image) and express Oct-4 [B, C] (red). [C] is the image in [B] merged with DAPI staining of their nuclei (blue). White arrows delineate the edge of an hESC colony. The area delineated by the white square in [A] indicates the approximate area that is visualized at higher magnification in [B, C]. […] Red arrows in [D-F] indicate that the differentiated colony consisted of dense centers containing cyst-like structures and necrotic cells. Laminin, therefore, appeared to be the minimal sufficient matrix protein.
Having established that bFGF, insulin, and ascorbic acid were important minimal components of a feeder-free culture system, the growth of hESCs on purified matrix proteins, including human laminin-, fibronectin-, or collagen IV-coated plates in hESC media containing 20 ng/ml bFGF, was further examined.

Molecule: O=C1O[C@H]([C@@H](O)CO)C(O)=C1O [ascorbic acid, reference compound]
- cyst-like structures and necrotic cells within dense cores of differentiated hESC colonies ([1]; absence of ascorbic acid, media containing only bFGF): became more severe
- growth of differentiated hESCs ([1]; absence of ascorbic acid, media containing only insulin): simply slower
- appearance of hESC colonies ([1]; ascorbic acid omitted from the media): very dense at their core and necrotic

Molecule: EGF: epidermal growth factor (NSDSECPLSHDGYCLHDGVCMYIEALDKYACNCVVGYIGERCQYRDLKWWELR; Epidermal growth factor; UniProt P01133 971-1023, looked up)
- ability to replace bFGF in supporting undifferentiated growth of hESCs [2]: can not replace bFGF

Molecule: IGF-I: insulin-like growth factor-I
- ability to replace bFGF in supporting undifferentiated growth of hESCs [2]: can not replace bFGF

Molecule: IGF-II: insulin-like growth factor-II
- ability to replace bFGF in supporting undifferentiated growth of hESCs [2]: can not replace bFGF

Molecule: PDGF: platelet-derived growth factor-AB
- ability to replace bFGF in supporting undifferentiated growth of hESCs [2]: can not replace bFGF

Molecule: VEGF
- ability to replace bFGF in supporting undifferentiated growth of hESCs [2]: can not replace bFGF

Molecule: aFGF: acidic fibroblast growth factor
- ability to replace bFGF in supporting undifferentiated growth of hESCs [2]: can not replace bFGF

Molecule: albumin: chromatographically-purified lipid-rich bovine serum albumin with low IgG content
- shape of hESC colonies ([1]; absence of albumin): more flat and spread out

Molecule: insulin: human recombinant insulin from Sigma, medium component
- immunoreactivity to acetylated H3 and H4, Myc, Tip60 HAT, nuclear focal localization of p300 HAT [3]: undetectable or weak immunoreactivity
- cell morphology in differentiated colonies ([1]; media that contained only the named growth factor): Large round cells

Molecule: laminin
- hESC colonies remaining undifferentiated (morphology, Oct-4) [4]: more than 80%

Molecule: transferrin: serum replacement component added at 8 μg/ml
- number of hESC colonies ([1]; absence of transferrin): fewer total hESC colonies
